Data published in USRE29225E, “N-substituted derivatives of 3-carboxamide and 3-thiocarboxamide” (The Dow Chemical Company, priority 1976, dated 1977).
≈ marks a conversion by molar mass, not a printed value. Like-named read-outs stand apart in the source and are kept apart here.

Key:
Assay type in all cases: cell-based
S. cerevisiae = assay: agar dilution test, S. cerevisiae; details: Saccharomyces cerevisiae, read-out: Minimum Inhibitory Concentration, Sc
From the text: (§1) In representative operations, the products of the invention when tested for antimicrobial activity using conventional agar dilution tests gave complete growth inhibition against the following organisms at the indicated concentrations in parts per million: […]

C. pelliculosa = assay: agar dilution test, C. pelliculosa; details: Hansenula anomala, read-out: Minimum Inhibitory Concentration, Cp
From the text: as §1

A. niger = assay: agar dilution test, A. niger; details: Aspergillus niger, read-out: Minimum Inhibitory Concentration, An
From the text: as §1

A. aerogenes = assay: agar dilution test, A. aerogenes; details: Klebsiella aerogenes, read-out: Minimum Inhibitory Concentration, Aa
From the text: as §1

S. typhosa = assay: agar dilution test, S. typhosa; details: read-out: Minimum Inhibitory Concentration, St
From the text: as §1

S. aureus = assay: agar dilution test, S. aureus; details: Staphylococcus aureus, complete growth inhibition, read-out: Minimum Inhibitory Concentration, Sa
From the text: as §1

P. aeruginosa = assay: agar dilution test, P. aeruginosa; details: Pseudomonas aeruginosa, read-out: Minimum Inhibitory Concentration, Pa
From the text: as §1

P. chrysogenum = assay: agar dilution test, P. chrysogenum; details: Penicillium chrysogenum, read-out: Minimum Inhibitory Concentration, Pen
From the text: as §1

[1] = S. cerevisiae, agar dilution, complete growth inhibition
[2] = C. pelliculosa, agar dilution, complete growth inhibition
[3] = A. niger, agar dilution, complete growth inhibition
[4] = A. aerogenes, agar dilution, complete growth inhibition
[5] = P. aeruginosa, agar dilution, complete growth inhibition
[6] = P. chrysogenum, agar dilution, complete growth inhibition

| SMILES | MIC (S. cerevisiae) [µg/mL] | MIC (C. pelliculosa) [µg/mL] | MIC (A. niger) [µg/mL] | MIC (A. aerogenes) [µg/mL] | MIC (S. typhosa; S. typhosa, agar dilution, complete growth inhibition) [µg/mL] | MIC (S. aureus) [µg/mL] | MIC (P. aeruginosa) [µg/mL] | MIC (P. chrysogenum) [µg/mL] | MIC (S. cerevisiae; [1]) [µg/mL] | MIC (C. pelliculosa; [2]) [µg/mL] | MIC (A. niger; [3]) [µg/mL] | MIC (A. aerogenes; [4]) [µg/mL] | MIC (S. typhosa) [µg/mL] | MIC (P. aeruginosa; [5]) [µg/mL] | MIC (P. chrysogenum; [6]) [µg/mL] |
| --- | --- | --- | --- | --- | --- | --- | --- | --- | --- | --- | --- | --- | --- | --- | --- |
| Cl/C=C\C[N+]12CN3CN(CN(C3)C1)C2.[Cl-] [Cis, cis-1-(3-chloro-2-propenyl)-3,5,7-triaza-1-azoniatricyclo (3,3,1,1^3,7) decane chloride, reference compound] | 250 | 500 | > 500 | 50 | 25 | 50 | 75 | 500 |  |  |  |  |  |  |  |
| O=C(Nc1ccccc1)N1CN2CN(C/C=C\Cl)CN(C2)C1 [Example 1, N-Phenyl-3-Carboxamide-7-Cis(3-Chloro-2-Propenyl)-1,3,5,7-Tetraazabicyclo(3,3,1)Nonane] |  |  |  |  |  | 50 (≈ 155 µM) |  |  | 250 (≈ 777 µM) | 250 (≈ 777 µM) | 500 (≈ 1550 µM) | 50 (≈ 155 µM) | 25 (≈ 77.7 µM) | 50 (≈ 155 µM) | 250 (≈ 777 µM) |
| S=C(Nc1ccccc1)N1CN2CN(C/C=C\Cl)CN(C2)C1 [Example 2, N-Phenyl-3-.[.Thiocarboxamide.]..Iadd.Methanethioamide.Iaddend.-7-Cis-(3-Chloro-2-Propenyl)-1,3,5,7-Tetraazabicyclo(3,3,1)Nonane] |  |  |  |  |  | 75 (≈ 222 µM) |  |  | 250 (≈ 740 µM) | > 500 | 250 (≈ 740 µM) | 50 (≈ 148 µM) | 25 (≈ 74 µM) | 75 (≈ 222 µM) | 500 (≈ 1480 µM) |
| COc1ccc(NC(=O)N2CN3CN(C/C=C\Cl)CN(C3)C2)cc1 [Example 3 a)] |  |  |  |  |  | 50 (≈ 142 µM) |  |  | 250 (≈ 711 µM) | 250 (≈ 711 µM) | 500 (≈ 1420 µM) | 75 (≈ 213 µM) | 10 (≈ 28.4 µM) | 75 (≈ 213 µM) | 250 (≈ 711 µM) |
| Cc1ccc(NC(=O)N2CN3CN(C/C=C\Cl)CN(C3)C2)cc1 [Example 3 b)] |  |  |  |  |  | 50 (≈ 149 µM) |  |  | 250 (≈ 744 µM) | 250 (≈ 744 µM) | 250 (≈ 744 µM) | 50 (≈ 149 µM) | 25 (≈ 74.4 µM) | 50 (≈ 149 µM) | 100 (≈ 298 µM) |
| Cc1ccc(C)c(NC(=O)N2CN3CN(C/C=C\Cl)CN(C3)C2)c1 [Example 3 c)] |  |  |  |  |  | 75 (≈ 214 µM) |  |  | 250 (≈ 715 µM) | 250 (≈ 715 µM) | 500 (≈ 1430 µM) | 75 (≈ 214 µM) | 50 (≈ 143 µM) | 75 (≈ 214 µM) | 250 (≈ 715 µM) |
| O=C(Nc1ccc(Cl)cc1)N1CN2CN(C/C=C\Cl)CN(C2)C1 [Example 3 d)] |  |  |  |  |  | 75 (≈ 211 µM) |  |  | 250 (≈ 702 µM) | 250 (≈ 702 µM) | 500 (≈ 1400 µM) | 75 (≈ 211 µM) | 25 (≈ 70.2 µM) | 100 (≈ 281 µM) | 250 (≈ 702 µM) |
| O=C(Nc1ccc(Br)cc1)N1CN2CN(C/C=C\Cl)CN(C2)C1 [Example 3 e)] |  |  |  |  |  | 100 (≈ 250 µM) |  |  | 250 (≈ 624 µM) | 250 (≈ 624 µM) | 500 (≈ 1250 µM) | 100 (≈ 250 µM) | 25 (≈ 62.4 µM) | 250 (≈ 624 µM) | 250 (≈ 624 µM) |
| O=C(Nc1cc(Cl)ccc1Cl)N1CN2CN(C/C=C\Cl)CN(C2)C1 [Example 3 f)] |  |  |  |  |  | 75 (≈ 192 µM) |  |  | 250 (≈ 640 µM) | 250 (≈ 640 µM) | 500 (≈ 1280 µM) | 75 (≈ 192 µM) | 50 (≈ 128 µM) | 100 (≈ 256 µM) | 250 (≈ 640 µM) |
| O=C(Nc1ccc(Cl)c(Cl)c1)N1CN2CN(C/C=C\Cl)CN(C2)C1 [Example 3 g)] |  |  |  |  |  | 50 (≈ 128 µM) |  |  | 250 (≈ 640 µM) | 250 (≈ 640 µM) | 500 (≈ 1280 µM) | 250 (≈ 640 µM) | 25 (≈ 64 µM) | 250 (≈ 640 µM) | 250 (≈ 640 µM) |
| O=C(NC1CCCCC1)N1CN2CN(C/C=C\Cl)CN(C2)C1 [Example 3 h)] |  |  |  |  |  | 75 (≈ 229 µM) |  |  | 250 (≈ 763 µM) | 250 (≈ 763 µM) | 500 (≈ 1530 µM) | 50 (≈ 153 µM) | 25 (≈ 76.3 µM) | 50 (≈ 153 µM) | 250 (≈ 763 µM) |
| Cc1ccc(S(=O)(=O)NC(=O)N2CN3CN(C/C=C\Cl)CN(C3)C2)cc1 [Example 3 i)] |  |  |  |  |  | 250 (≈ 625 µM) |  |  | 500 (≈ 1250 µM) | 500 (≈ 1250 µM) | > 500 | 250 (≈ 625 µM) | 50 (≈ 125 µM) | 500 (≈ 1250 µM) | 500 (≈ 1250 µM) |
| S=C(Nc1ccc(Cl)cc1)N1CN2CN(C/C=C\Cl)CN(C2)C1 [Example 3 j)] |  |  |  |  |  | 75 (≈ 201 µM) |  |  | 250 (≈ 671 µM) | 250 (≈ 671 µM) | 250 (≈ 671 µM) | 75 (≈ 201 µM) | 50 (≈ 134 µM) | 100 (≈ 269 µM) | 100 (≈ 269 µM) |
| S=C(Nc1ccc(Br)cc1)N1CN2CN(C/C=C\Cl)CN(C2)C1 [Example 3 k)] |  |  |  |  |  | 250 (≈ 600 µM) |  |  | 500 (≈ 1200 µM) | 250 (≈ 600 µM) | 500 (≈ 1200 µM) | 100 (≈ 240 µM) | 75 (≈ 180 µM) | 250 (≈ 600 µM) | 250 (≈ 600 µM) |
| S=C(Nc1ccc(Cl)c(Cl)c1)N1CN2CN(C/C=C\Cl)CN(C2)C1 [Example 3 l)] |  |  |  |  |  | 50 (≈ 123 µM) |  |  | 250 (≈ 615 µM) | 250 (≈ 615 µM) | 250 (≈ 615 µM) | 100 (≈ 246 µM) | 75 (≈ 184 µM) | 100 (≈ 246 µM) | 100 (≈ 246 µM) |
| Cc1ccc(NC(=S)N2CN3CN(C/C=C\Cl)CN(C3)C2)cc1C [Example 3 m)] |  |  |  |  |  | 50 (≈ 137 µM) |  |  | 250 (≈ 683 µM) | 250 (≈ 683 µM) | 250 (≈ 683 µM) | 75 (≈ 205 µM) | 50 (≈ 137 µM) | 100 (≈ 273 µM) | 100 (≈ 273 µM) |
| CCCCNC(=O)N1CN2CN(C/C=C\Cl)CN(C2)C1 [Example 3 n)] |  |  |  |  |  | 50 (≈ 166 µM) |  |  | 250 (≈ 828 µM) | 250 (≈ 828 µM) | 250 (≈ 828 µM) | 50 (≈ 166 µM) | 25 (≈ 82.8 µM) | 75 (≈ 248 µM) | 250 (≈ 828 µM) |
| CCCCNC(=S)N1CN2CN(C/C=C\Cl)CN(C2)C1 [Example 3 o)] |  |  |  |  |  | 100 (≈ 315 µM) |  |  | 500 (≈ 1570 µM) | > 500 | 500 (≈ 1570 µM) | 100 (≈ 315 µM) | 75 (≈ 236 µM) | 250 (≈ 786 µM) | 500 (≈ 1570 µM) |
